The text below walks through data of patent US12162864B2, “Condensed-cyclic compound” (Takeda Pharmaceutical Company Limited, priority 2018, dated 2024).

One series in a line: Rat PK test. The format is in vivo. As to conditions: plasma, male SD rats, cassette dosing; for clearance / MRT: intravenous 0.1 mg/kg; for clearance: read-out: CL total (total clearance) (converted); for MRT: read-out: MRT iv (mean residence time); for Tmax: oral 1 mg/kg, read-out: Tmax (time to reach maximum plasma concentration). As to the method:
As the rat, 8-week-old male SD rats (Japan SLC, Inc.) were used. They were fed on a solid commercially available diet (CE-2, CLEA Japan, Inc.) and allowed to freely ingest tap water as the drinking water. An intravenous administration solution for the rats was prepared by weighing a test compound, dissolving same in dimethylacetamide (DMA) (Wako Pure Chemical Industries, Ltd.), adding the same volume of 1,3-butanediol (Wako Pure Chemical Industries, Ltd.) and mixing by stirring to give a DMA:1,3-butanediol (1:1, v/v) solution. An oral administration solution was prepared by weighing a test compound, pulverizing same in an agate mortar, and gradually adding 0.5 w/v % aqueous methylcellulose solution to give a suspension. For intravenous administration, the solution was administered into femoral vein of the rats at 0.1 mg/0.5 mL/kg (salt converted to free form). For oral administration, the suspension was administered to the rats at 1 mg/5 mL/kg (salt converted to free form). The cassette dosing method was used for the both administration routes, and the test compound was administered in the following manner. • Compound of Example 5 (intravenous: 9 compounds cassette administration, oral: 4 compounds cassette administration) • Compound of Example 6 (intravenous: 5 compounds cassette administration, oral: 3 compounds cassette administration) • Compound of Example 13 (intravenous: 10 compounds cassette administration, oral: 5 compounds cassette administration) • Compound of Example 14 (intravenous: 7 compounds cassette administration, oral: 3 compounds cassette administration) • Compound of Example 31 (intravenous: 9 compounds cassette administration, oral: 5 compounds cassette administration) • Compound of Example 60 (intravenous: 7 compounds cassette administration, oral: 2 compounds cassette administration)
In the case of intravenous administration, blood samples were collected from the tail vein at 5, 10, 15, 30 min, 1, 2, 4, 8 hr after administration, an anticoagulation treatment with heparin sodium (Shimizu Pharmaceutical Co., Ltd.) was performed, and plasma was collected after centrifugation and subjected to the measurement of drug concentration. In the case of oral administration, blood samples were collected from the tail vein at 15, 30 min, 1, 2, 4, 8 hr after administration, an anticoagulation treatment with heparin sodium was performed, and plasma was collected after centrifugation and subjected to the measurement of drug concentration.
All drug concentrations were measured by LC-MS/MS analysis. For a pharmacokinetics test, the plasma (50 μL) was placed in a tube, acetonitrile (150 μL) containing internal standard solution was added and they were mixed on a vortex mixer. Thereafter, the mixture was centrifuged (5000 rpm, 5 min, 4° C.). The supernatant (60 μL) after centrifugation was added to 10 mmol/L ammonium formate (160 μL) added earlier and mixed therewith. This sample was injected to LC/MS/MS. The HPLC system used was Shimadzu™ LC-20A (Shimadzu Corporation), the column used was Unison UK-C18 HT (3.0 μm, 2.0×20 mm, Imtakt) at 50° C., and 10 mmol/L ammonium formate, 0.2% formic acid as mobile phase A and acetonitrile, 0.2% formic acid as mobile phase B were fed each at a flow rate of 1.2 mL/min under gradient conditions of (B concentration: 0 min→0.1 min, 5%, 0.1→0.75 min, 5-99%, 0.75→1.15 min, 99%, 1.15→1.16 min, 5%, 1.16→1.5 min, 5%). MS/MS used was AB Sciex™ TQ5500-MPX (Applied Biosystems™).
The results are shown in Table 4. • Tmax: time to reach maximum plasma concentration • MRT: mean residence time • iv: intravenous administration • CL total: total clearance

For another series, the system named is Male beagle dogs. As to the kind of experiment: Experiment on gastrointestinal motility in dogs. The class given is in vivo, dog. As to conditions: 4 or 8 hr after administration, compared with solvent administration group. As to the method: Experiment on Gastrointestinal Motility in Dogs
Male beagle dogs each equipped with four pressure transducers (one in the ileum and three in the large intestine) were used after an acclimation period for 15 days. The compound of Example 13 (0.03 mg/kg) or the compound of Example 60 (1 mg/kg) was suspended in 0.5% methylcellulose solution and orally administered at a volume of 10 mL/kg. Only 0.5% methylcellulose was administered to a solvent administration group.
HAPC (abbreviation for high amplitude propagated contractions which mean strong contractions propagated from the oral side to the anal side of the large intestine during defecation. Intestinal contraction pattern observed during normal defecation.) at 4 or 8 hr after administration was counted using a telemeter for gastrointestinal motility (GTS-850, STARMEDICAL).

What is called clearance is the rate of elimination divided by the concentration. As usually defined, the MRT is a mean duration of stay, worked out from the concentration-time curve. For `Cn1cnc(-c2ccc(Cc3cc(C(=O)N[C@H]4CCOC[C@@H]4O)c(F)c4c3OCC4)cc2)c1` [Example 5, 1,5-anhydro-2,3-dideoxy-3-(((4-fluoro-7-(4-(1-methyl-1H-imidazol-4-yl)benzyl)-2,3-dihydro-1-benzofuran-5-yl)carbonyl)amino)-L-threo-pentitol], in “Rat PK test”, the clearance was 11.1 mL/min/kg, the MRT was found to be 36 min and the Tmax stood at 30 min.

For the compound `Cn1cc(-c2ccc(Cc3cc(C(=O)N[C@H]4CCOC[C@@H]4O)c(F)c4c3OCC4)cn2)cn1` [Example 6, 1,5-anhydro-2,3-dideoxy-3-(((4-fluoro-7-((6-(1-methyl-1H-pyrazol-4-yl)pyridin-3-yl)methyl)-2,3-dihydro-1-benzofuran-5-yl)carbonyl)amino)-L-threo-pentitol], in “Rat PK test”, the clearance is 6.5 mL/min/kg, the MRT is 84 min and the Tmax was found to be 72 min.

Regarding `COCCNC(=O)c1ccc(Cc2cc(C(=O)N[C@H]3CCOC[C@@H]3O)c(F)c3c2OCC3)cc1F` [Example 13, 1,5-anhydro-2,3-dideoxy-3-(((4-fluoro-7-(3-fluoro-4-((2-methoxyethyl)carbamoyl)benzyl)-2,3-dihydro-1-benzofuran-5-yl)carbonyl)amino)-L-threo-pentitol], in “Rat PK test”, the clearance was 13.7 mL/min/kg, the MRT was found to be 72 min and the Tmax was 60 min. Besides, in the series with Male beagle dogs (oral 0.03 mg/kg), the “number of HAPCs in the intestinal tract” value is on record as “an increase in the number of HAPCs in the intestinal tract was observed”.

As to `CCOCCNC(=O)c1ccc(Cc2cc(C(=O)N[C@H]3CCOC[C@@H]3O)c(F)c3c2OCC3)cc1F` [Example 14, 1,5-anhydro-2,3-dideoxy-3-(((7-(4-((2-ethoxyethyl)carbamoyl)-3-fluorobenzyl)-4-fluoro-2,3-dihydro-1-benzofuran-5-yl)carbonyl)amino)-L-threo-pentitol], in the series “Rat PK test”, the clearance is 22.9 mL/min/kg, the MRT was determined as 36 min and the Tmax stood at 42 min.

For `CNC(=O)c1ccc(Cc2cc(C(=O)N[C@H]3CCOC[C@@H]3O)c(OC)c3c2OCC3)cc1F` [Example 31, 1,5-anhydro-2,3-dideoxy-3-(((7-(3-fluoro-4-(methylcarbamoyl)benzyl)-4-methoxy-2,3-dihydro-1-benzofuran-5-yl)carbonyl)amino)-L-threo-pentitol], in “Rat PK test”, the clearance is 9.05 mL/min/kg, the MRT was determined as 54 min and the Tmax came out at 42 min.

As for `COCCCNC(=O)c1ccc(Cc2cc(C(=O)N[C@H]3CCOC[C@@H]3O)c(OC)c3c2CCC3)cc1F` [Example 60, 1,5-anhydro-2,3-dideoxy-3-(((7-(3-fluoro-4-((3-methoxypropyl)carbamoyl)benzyl)-4-methoxy-2,3-dihydro-1H-inden-5-yl)carbonyl)amino)-L-threo-pentitol], in “Rat PK test”, the clearance is 18.6 mL/min/kg, the MRT was 36 min and the Tmax is 48 min. Besides, the “number of HAPCs in the intestinal tract” value in the series on Male beagle dogs (oral 1 mg/kg) is given as “an increase in the number of HAPCs in the intestinal tract was observed”.
